From patent US20070128217A1 (priority 2003, published 2007)

Experiments:
[1] = test system: antibodies in sera from SARS patients (sera 1a, 1b, 2, 6, 37, 62, London, SARS-yellow, SARS-green); type: binding, human; parameters: Binding of serum 6 to linear peptides of protein X1 of SARS-CoV Urbani / Binding of serum 37 to linear peptides of protein X1 of SARS-CoV Urbani / Binding of serum 6 to looped/cyclic peptide (PEPSCAN-ELISA) / Binding of serum 37 to looped/cyclic peptide (PEPSCAN-ELISA) / Binding of serum 37 to looped/cyclic peptides of protein X1 of SARS-CoV Urbani / Binding of serum 6 to linear peptides of protein X2 / Binding of serum 37 to linear peptides of protein X2 / Binding of serum 37 to looped/cyclic peptides of protein X2 of SARS-CoV Urbani / Binding of serum 6 to linear peptides of protein M of SARS-CoV Urbani / Binding of serum 37 to linear peptides of protein M of SARS-CoV Urbani / Binding of serum 6 to looped/cyclic peptides of protein M of SARS-CoV Urbani / Binding of serum 37 to looped/cyclic peptides of protein M of SARS-CoV Urbani / Binding of serum 6 to linear peptides of protein X3 of SARS-CoV Urbani / Binding of serum 37 to linear peptides of protein X3 of SARS-CoV Urbani / Binding of serum 37 to looped/cyclic peptides of protein X3 of SARS-CoV Urbani / Binding of serum 6 to linear peptides of protein X4 of SARS-CoV Urbani / Binding of serum 37 to linear peptides of protein X4 of SARS-CoV Urbani / Binding of serum 37 to looped/cyclic peptides of protein X4 of SARS-CoV Urbani / Binding of serum 6 to linear peptides of protein X5 of SARS-CoV Urbani / Binding of serum 37 to linear peptides of protein X5 of SARS-CoV Urbani / Binding of serum 37 to looped/cyclic peptides of protein X5 of SARS-CoV Urbani / Binding of serum 6 to linear peptides of protein N of SARS-CoV Urbani / Binding of serum 37 to linear peptides of protein N of SARS-CoV Urbani / Binding of serum 6 to linear peptide (PEPSCAN-ELISA) / Binding of serum 1a to looped/cyclic peptides of protein N of SARS-CoV Urbani / Binding of serum 1b to looped/cyclic peptides of protein N of SARS-CoV Urbani / Binding of serum 2 to looped/cyclic peptides of protein N of SARS-CoV Urbani / Binding of serum 6 to looped/cyclic peptides of protein N of SARS-CoV Urbani / Binding of serum 37 to looped/cyclic peptides of protein N of SARS-CoV Urbani / Binding of serum 62 to looped/cyclic peptides of protein N of SARS-CoV Urbani / Binding of serum London to looped/cyclic peptides of protein N of SARS-CoV Urbani / Binding of serum SARS-green to looped/cyclic peptides of protein N of SARS-CoV Urbani: unit not given here
[2] = test system: rabbit serum obtained by immunizing a rabbit with the SARS-CoV strain Frankfurt 1; type: binding; parameters: Binding of a rabbit serum to linear peptides / Binding of a rabbit serum to looped peptides / Rabbit serum linear peptides / Rabbit serum looped peptides / Binding of a rabbit serum to linear peptides of protein N of SARS-CoV Urbani (Rabbit serum linear peptides) / Binding of a rabbit serum to looped/cyclic peptides of protein N of SARS-CoV Urbani (Rabbit serum looped peptides): unit not given here
[3] = test system: recombinant human anti-SARS-CoV antibody 03-018; type: binding; parameters: Binding of antibody 03-018 to linear peptides of the N protein of SARS-CoV Urbani / Binding of antibody 03-018 to looped/cyclic peptides of the N protein of SARS-CoV Urbani: unit not given here
[4] = test system: control sera (pooled serum of ten healthy LUMC hospital workers; commercial negative donor pooled serum from the Dutch bloodbank); type: binding, human; parameters: Binding of Control serum LUMC to linear peptides / Binding of Control serum Blood-bank to linear peptides / Binding of Control serum LUMC to looped peptides / Binding of Control Serum Blood-Bank to Looped peptides / Binding of Control serum LUMC to linear peptides of the protein M of SARS-CoV Urbani / Binding of Control serum Blood-bank to linear peptides of the protein M of SARS-CoV Urbani / Binding of Control serum LUMC to looped peptides of the protein M of SARS-CoV Urbani / Binding of Control Serum Blood-Bank to Looped peptides of the protein M of SARS-CoV Urbani: unit not given here

Row | Sequence | Binding of serum 1a to linear peptides of protein N of SARS-CoV Urbani [1] | Binding of serum 1a to looped/cyclic peptides of protein N of SARS-CoV Urbani [1] | Binding of serum 1b to linear peptides of protein N of SARS-CoV Urbani [1] | Binding of serum 1b to looped/cyclic peptides of protein N of SARS-CoV Urbani [1] | Binding of serum 2 to linear peptides of protein N of SARS-CoV Urbani [1] | Binding of serum 2 to looped/cyclic peptides of protein N of SARS-CoV Urbani [1] | Binding of serum 6 to looped/cyclic peptides of protein N of SARS-CoV Urbani [1] | Binding of serum 37 to looped/cyclic peptides of protein N of SARS-CoV Urbani [1] | Binding of serum 62 to looped/cyclic peptides of protein N of SARS-CoV Urbani [1] | Binding of serum London to looped/cyclic peptides of protein N of SARS-CoV Urbani [1] | Binding of serum SARS-green to looped/cyclic peptides of protein N of SARS-CoV Urbani [1] | Binding of serum SARS-yellow to looped/cyclic peptides of protein N of SARS-CoV Urbani [1] | Binding of a rabbit serum to linear peptides of protein N of SARS-CoV Urbani (Rabbit serum linear peptides) [2] | Binding of a rabbit serum to looped/cyclic peptides of protein N of SARS-CoV Urbani (Rabbit serum looped peptides) [2] | Binding of antibody 03-018 to linear peptides of the N protein of SARS-CoV Urbani [3] | Binding of antibody 03-018 to looped/cyclic peptides of the N protein of SARS-CoV Urbani [3] | Binding of Control Serum Blood-Bank to Looped peptides [4] | Binding of Control serum Blood-bank to linear peptides [4] | Binding of Control serum LUMC to linear peptides [4] | Binding of Control serum LUMC to looped peptides [4] | also measured
1 | SDNGPQSNQRSAPRI | 0.2 | 0.3 | 0.0 | 0.0 | 0.1 | 0.3 | 0.3 | 0.5 | 0.4 | 0.4 | 0.2 | 0.1 | 0.1 | 0.2 | 0.0 | 0.2 | 0.5 | 0.6 | 0.5 | 0.5 | Binding of serum 6 to linear peptides of protein N of SARS-CoV Urbani [1]: 0.2; Binding of serum 37 to linear peptides of protein N of SARS-CoV Urbani [1]: 0.2; Binding of serum 62 to linear peptides of protein N of SARS-CoV Urbani [1]: 0.4; Binding of serum London to linear peptides of protein N of SARS-CoV Urbani [1]: 0.5; Binding of serum SARS-green to linear peptides of protein N of SARS-CoV Urbani [1]: 0.0; Binding of serum SARS-yellow to linear peptides of protein N of SARS-CoV Urbani [1]: 0.5
2 | SGGGETALALLLLDR |  | 0.4 |  | 0.2 |  | 0.5 | 0.3 | 0.7 | 0.7 | 0.5 | 0.1 | 0.7 | 0.2 | 0.7 | 0.1 | 0.2 | 0.7 | 0.7 | 0.6 | 0.7 | Binding of serum 1a to linear peptide (PEPSCAN-ELISA) [1]: 0.3; Binding of serum 1b to linear peptide (PEPSCAN-ELISA) [1]: 0.1; Binding of serum 2 to linear peptide (PEPSCAN-ELISA) [1]: 0.2; Binding of serum 6 to linear peptide (PEPSCAN-ELISA) [1]: 0.2; Binding of serum 37 to linear peptide (PEPSCAN-ELISA) [1]: 0.7; Binding of serum 62 to linear peptide (PEPSCAN-ELISA) [1]: 0.7; Binding of serum London to linear peptide (PEPSCAN-ELISA) [1]: 0.4; Binding of serum SARS-green to linear peptide (PEPSCAN-ELISA) [1]: 0.1; Binding of serum SARS-yellow to linear peptide (PEPSCAN-ELISA) [1]: 0.5
3 | SGKGQQQQGQTVTKK |  | 0.3 |  | 0.2 |  | 0.3 | 0.3 | 0.6 | 0.5 | 0.4 | 0.2 | 0.3 | 0.2 | 0.4 | 0.1 | 0.2 | 0.6 | 1.0 | 1.1 | 0.6 | Binding of serum 1a to linear peptide (PEPSCAN-ELISA) [1]: 0.3; Binding of serum 1b to linear peptide (PEPSCAN-ELISA) [1]: 0.1; Binding of serum 2 to linear peptide (PEPSCAN-ELISA) [1]: 0.2; Binding of serum 6 to linear peptide (PEPSCAN-ELISA) [1]: 0.4; Binding of serum 37 to linear peptide (PEPSCAN-ELISA) [1]: 0.7; Binding of serum 62 to linear peptide (PEPSCAN-ELISA) [1]: 0.9; Binding of serum London to linear peptide (PEPSCAN-ELISA) [1]: 0.6; Binding of serum SARS-green to linear peptide (PEPSCAN-ELISA) [1]: 0.5; Binding of serum SARS-yellow to linear peptide (PEPSCAN-ELISA) [1]: 0.7
4 | SGPDDQIGYYRRATR | 0.2 | 0.4 | 0.1 | 0.3 | 0.2 | 0.5 | 0.4 | 0.8 | 0.7 | 0.5 | 0.5 | 0.7 |  |  | 0.1 | 0.3 | 0.8 | 0.8 | 0.7 | 0.9 | Binding of serum 6 to linear peptides of protein N of SARS-CoV Urbani [1]: 0.2; Binding of serum 37 to linear peptides of protein N of SARS-CoV Urbani [1]: 0.6; Binding of serum 62 to linear peptides of protein N of SARS-CoV Urbani [1]: 0.6; Binding of serum London to linear peptides of protein N of SARS-CoV Urbani [1]: 0.4; Binding of serum SARS-green to linear peptides of protein N of SARS-CoV Urbani [1]: 0.4; Binding of serum SARS-yellow to linear peptides of protein N of SARS-CoV Urbani [1]: 0.6; Recognition of the peptide by the rabbit serum [2]: recognized
